# In patent publication US11987588B2, “Modulators of the beta-3 adrenergic receptor useful for the treatment or prevention of heart failure and disorders related thereto” (Arena Pharmaceuticals, Inc., priority 2017, dated 2024):
# Target: Beta-3 Adrenergic Receptor (Homo sapiens (Human), UniProt P13945)
# Test: Homogeneous Time-Resolved Fluorescence (HTRF) cAMP antagonist assay, IC50 determination
# Assay type: cell-based
# Conditions: CHO-K1 cells stably expressing recombinant receptor, isoproterenol at EC90
# How it was run: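 In this functional readout, recombinant CHO-K1 cells received compound, then isoproterenol at its EC90. After 1 h at room temperature, cAMP levels were determined by HTRF using an on-plate standard curve, and IC50 values were fitted.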
# Beta-3 Adrenergic Receptor, sequence (P13945 whole entry, species assumed): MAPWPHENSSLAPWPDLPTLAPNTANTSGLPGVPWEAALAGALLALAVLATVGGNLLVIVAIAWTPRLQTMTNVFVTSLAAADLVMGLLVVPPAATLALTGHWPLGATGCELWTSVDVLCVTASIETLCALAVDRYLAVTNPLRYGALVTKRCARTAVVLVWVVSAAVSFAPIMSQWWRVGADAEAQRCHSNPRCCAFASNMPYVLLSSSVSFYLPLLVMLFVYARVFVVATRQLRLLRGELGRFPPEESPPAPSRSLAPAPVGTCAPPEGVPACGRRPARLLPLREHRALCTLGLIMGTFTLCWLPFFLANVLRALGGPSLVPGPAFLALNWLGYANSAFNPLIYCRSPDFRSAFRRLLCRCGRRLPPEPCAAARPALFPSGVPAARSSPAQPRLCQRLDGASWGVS
row,SMILES,IC50 [nM]
1,"CCNS(=O)(=O)c1cccc(OC[C@@H](O)CNC2COC3(CCN(S(=O)(=O)c4ccc5c(c4)NC(=O)CO5)CC3)C2)c1 (stereo partly drawn) [Compound 228, N-ethyl-3-((2S)-2-hydroxy-3-(8-(3-oxo-3,4-dihydro-2H-benzo[b][1,4]oxazin-6-ylsulfonyl)-1-oxa-8-azaspiro[4.5]decan-3-ylamino)propoxy)benzenesulfonamide]",24.2
2,"CCc1cnc(N2CCC3(CC2)C[C@@H](NC[C@H](O)COc2cccc(S(=O)(=O)NC)c2)CO3)nc1 [Compound 571, 3-((S)-3-((R)-8-(5-ethylpyrimidin-2-yl)-1-oxa-8-azaspiro[4.5]decan-3-ylamino)-2-hydroxypropoxy)-N-methylbenzenesulfonamide]",237
3,"CNS(=O)(=O)c1cccc(OC[C@@H](O)CN[C@H]2COC3(CCN(S(=O)(=O)c4cccc(-c5ccc(CNCCC(C)C)cc5)c4)CC3)C2)c1 [Compound 364, 3-((S)-2-hydroxy-3-((R)-8-(4′-((isopentylamino)methyl)biphenyl-3-ylsulfonyl)-1-oxa-8-azaspiro[4.5]decan-3-ylamino)propoxy)-N-methylbenzenesulfonamide]",144
4,"CNS(=O)(=O)c1cccc(OC[C@@H](O)CNC2COC3(CCN(S(=O)(=O)c4cccc(-c5ccc(CNCC(F)(F)F)cc5)c4)CC3)C2)c1 (stereo partly drawn) [Compound 321, 3-((2S)-2-hydroxy-3-(8-(4′-((2,2,2-trifluoroethylamino)methyl)biphenyl-3-ylsulfonyl)-1-oxa-8-azaspiro[4.5]decan-3-ylamino)propoxy)-N-methylbenzenesulfonamide]",70.5
5,"CNS(=O)(=O)c1cccc(OC[C@@H](O)CN[C@H]2COC3(CCN(c4ncc(Cc5ccccc5)cn4)CC3)C2)c1 [Compound 570, 3-((S)-3-((R)-8-(5-benzylpyrimidin-2-yl)-1-oxa-8-azaspiro[4.5]decan-3-ylamino)-2-hydroxypropoxy)-N-methylbenzenesulfonamide]",143
6,"O=S(=O)(NC1CCOCC1)c1cccc(OC[C@@H](O)CNC2COC3(CCN(S(=O)(=O)c4ccc5ccccc5c4)CC3)C2)c1 (stereo partly drawn) [Compound 50, 3-((2S)-2-hydroxy-3-(8-(naphthalen-2-ylsulfonyl)-1-oxa-8-azaspiro[4.5]decan-3-ylamino)propoxy)-N-(tetrahydro-2H-pyran-4-yl)benzenesulfonamide]",87.2
7,"CCNS(=O)(=O)c1cccc(OC[C@@H](O)CNC2COC3(CCN(S(=O)(=O)c4cccc(-c5ccc(CN)cc5)c4)CC3)C2)c1 (stereo partly drawn) [Compound 210, 3-((2S)-3-(8-(4′-(aminomethyl)biphenyl-3-ylsulfonyl)-1-oxa-8-azaspiro[4.5]decan-3-ylamino)-2-hydroxypropoxy)-N-ethylbenzenesulfonamide]",20.4
8,"CNS(=O)(=O)c1cccc(OC[C@@H](O)CN[C@H]2COC3(CCN(S(=O)(=O)c4cc(-c5ccc(CN)cc5)ccc4OC(F)(F)F)CC3)C2)c1 [Compound 416, 3-((S)-3-((R)-8-(4′-(aminomethyl)-4-(trifluoromethoxy)biphenyl-3-ylsulfonyl)-1-oxa-8-azaspiro[4.5]decan-3-ylamino)-2-hydroxypropoxy)-N-methylbenzenesulfonamide]",262
9,"CNS(=O)(=O)c1cccc(OC[C@@H](O)CNC2COC3(CCN(S(=O)(=O)c4cccc(-c5ccc(CNCCNC(C)=O)cc5)c4)CC3)C2)c1 (stereo partly drawn) [Compound 348, N-(2-((3′-(3-((S)-2-hydroxy-3-(3-(N-methylsulfamoyl)phenoxy)propylamino)-1-oxa-8-azaspiro[4.5]decan-8-ylsulfonyl)biphenyl-4-yl)methylamino)ethyl)acetamide]",36.7
10,"CNS(=O)(=O)c1cccc(OC[C@@H](O)CNC2COC3(CCN(S(=O)(=O)C4CCCCC4)CC3)C2)c1 (stereo partly drawn) [Compound 125, 3-((2S)-3-(8-(cyclohexylsulfonyl)-1-oxa-8-azaspiro[4.5]decan-3-ylamino)-2-hydroxypropoxy)-N-methylbenzenesulfonamide]",78.1
11,"O=S(=O)(NCCCO)c1cccc(OC[C@@H](O)CNC2COC3(CCN(S(=O)(=O)c4ccc5ccccc5c4)CC3)C2)c1 (stereo partly drawn) [Compound 51, 3-((2S)-2-hydroxy-3-(8-(naphthalen-2-ylsulfonyl)-1-oxa-8-azaspiro[4.5]decan-3-ylamino)propoxy)-N-(3-hydroxypropyl)benzenesulfonamide]",58.5

# The next lines start with the values.
row,IC50 [nM],SMILES
1,62.4,"CNS(=O)(=O)c1cccc(OC[C@@H](O)CN[C@H]2COC3(CCN(S(=O)(=O)c4cn(C)c5ccccc5c4=O)CC3)C2)c1 [Compound 494, 3-((S)-2-hydroxy-3-((R)-8-(1-methyl-4-oxo-1,4-dihydroquinolin-3-ylsulfonyl)-1-oxa-8-azaspiro[4.5]decan-3-ylamino)propoxy)-N-methylbenzenesulfonamide]"
2,15.7,"CNS(=O)(=O)c1cccc(OC[C@@H](O)CN[C@@H]2COC3(CCN(S(=O)(=O)c4cncc(-c5ccc(CN)cc5)c4)CC3)C2)c1 [Compound 374, 3-((S)-3-((S)-8-(5-(4-(aminomethyl)phenyl)pyridin-3-ylsulfonyl)-1-oxa-8-azaspiro[4.5]decan-3-ylamino)-2-hydroxypropoxy)-N-methylbenzenesulfonamide]"
3,26.5,"CNS(=O)(=O)c1cccc(OC[C@@H](O)CNC2COC3(CCN(S(=O)(=O)c4cccc(-c5ccn(C)c5)c4)CC3)C2)c1 (stereo partly drawn) [Compound 76, 3-((2S)-2-hydroxy-3-(8-(3-(1-methyl-1H-pyrrol-3-yl)phenylsulfonyl)-1-oxa-8-azaspiro[4.5]decan-3-ylamino)propoxy)-N-methylbenzenesulfonamide]"
4,105,"CNS(=O)(=O)c1cccc(OC[C@@H](O)CNC2COC3(CCN(S(=O)(=O)c4ccc5c(c4)CC(=O)N5)CC3)C2)c1 (stereo partly drawn) [Compound 182, 3-((2S)-2-hydroxy-3-(8-(2-oxoindolin-5-ylsulfonyl)-1-oxa-8-azaspiro[4.5]decan-3-ylamino)propoxy)-N-methylbenzenesulfonamide]"
5,7.47,"CNS(=O)(=O)c1cccc(OC[C@@H](O)CNC2COC3(CCN(S(=O)(=O)c4ccc5c(c4)CCCC5)CC3)C2)c1 (stereo partly drawn) [Compound 16, 3-((2S)-2-hydroxy-3-(8-(5,6,7,8-tetrahydronaphthalen-2-ylsulfonyl)-1-oxa-8-azaspiro[4.5]decan-3-ylamino)propoxy)-N-methylbenzenesulfonamide]"
6,127,"CCC(CC)CNS(=O)(=O)c1cccc(OC[C@@H](O)CNC2COC3(CCN(S(=O)(=O)c4ccc5ccccc5c4)CC3)C2)c1 (stereo partly drawn) [Compound 97, N-(2-ethylbutyl)-3-((2S)-2-hydroxy-3-(8-(naphthalen-2-ylsulfonyl)-1-oxa-8-azaspiro[4.5]decan-3-ylamino)propoxy)benzenesulfonamide]"
7,22.9,"CNS(=O)(=O)c1cccc(OC[C@@H](O)CN[C@H]2COC3(CCN(S(=O)(=O)c4ccc5[nH]c(C)nc5c4)CC3)C2)c1 [Compound 501, 3-((S)-2-hydroxy-3-((R)-8-(2-methyl-1H-benzo[d]imidazol-5-ylsulfonyl)-1-oxa-8-azaspiro[4.5]decan-3-ylamino)propoxy)-N-methylbenzenesulfonamide]"
8,35.8,"CCCN1CCOc2ncc(S(=O)(=O)N3CCC4(CC3)C[C@@H](NC[C@H](O)COc3cccc(S(=O)(=O)NC)c3)CO4)cc21 [Compound 470, 3-((S)-2-hydroxy-3-((R)-8-(1-propyl-2,3-dihydro-1H-pyrido[2,3-b][1,4]oxazin-7-ylsulfonyl)-1-oxa-8-azaspiro[4.5]decan-3-ylamino)propoxy)-N-methylbenzenesulfonamide]"
9,31.1,"CNS(=O)(=O)c1cccc(OC[C@@H](O)CN[C@H]2COC3(CCN(S(=O)(=O)c4cnc5c(c4)OCCN5C)CC3)C2)c1 [Compound 481, 3-((S)-2-hydroxy-3-((R)-8-(4-methyl-3,4-dihydro-2H-pyrido[3,2-b][1,4]oxazin-7-ylsulfonyl)-1-oxa-8-azaspiro[4.5]decan-3-ylamino)propoxy)-N-methylbenzenesulfonamide]"
10,13.4,"CNS(=O)(=O)c1cccc(OC[C@@H](O)CNC2COC3(CCN(S(=O)(=O)c4cccc(C)c4)CC3)C2)c1 (stereo partly drawn) [Compound 21, 3-((2S)-2-hydroxy-3-(8-(m-tolylsulfonyl)-1-oxa-8-azaspiro[4.5]decan-3-ylamino)propoxy)-N-methylbenzenesulfonamide]"
11,6.95,"CNS(=O)(=O)c1cccc(OC[C@@H](O)CN[C@H]2COC3(CCN(S(=O)(=O)c4cnc5[nH]cc(C(F)(F)F)c5c4)CC3)C2)c1 [Compound 509, 3-((S)-2-hydroxy-3-((R)-8-(3-(trifluoromethyl)-1H-pyrrolo[2,3-b]pyridin-5-ylsulfonyl)-1-oxa-8-azaspiro[4.5]decan-3-ylamino)propoxy)-N-methylbenzenesulfonamide]"
12,10.5,"CNS(=O)(=O)c1cccc(OC[C@@H](O)CNC2COC3(CCN(S(=O)(=O)c4cccc(-c5ccc(N)nc5)c4)CC3)C2)c1 (stereo partly drawn) [Compound 103, 3-((2S)-3-(8-(3-(6-aminopyridin-3-yl)phenylsulfonyl)-1-oxa-8-azaspiro[4.5]decan-3-ylamino)-2-hydroxypropoxy)-N-methylbenzenesulfonamide]"
13,58.8,"CNS(=O)(=O)c1cccc(OC[C@@H](O)CN[C@H]2COC3(CCN(S(=O)(=O)c4c[nH]c5ncccc45)CC3)C2)c1 [Compound 507, 3-((S)-3-((R)-8-(1H-pyrrolo[2,3-b]pyridin-3-ylsulfonyl)-1-oxa-8-azaspiro[4.5]decan-3-ylamino)-2-hydroxypropoxy)-N-methylbenzenesulfonamide]"
14,15.3,"CNS(=O)(=O)c1cccc(OC[C@@H](O)CNC2COC3(CCN(S(=O)(=O)c4ccc(Cl)cc4)CC3)C2)c1 (stereo partly drawn) [Compound 17, 3-((2S)-3-(8-(4-chlorophenylsulfonyl)-1-oxa-8-azaspiro[4.5]decan-3-ylamino)-2-hydroxypropoxy)-N-methylbenzenesulfonamide]"
15,40.3,"CCn1cc(S(=O)(=O)N2CCC3(CC2)C[C@@H](NC[C@H](O)COc2cccc(S(N)(=O)=O)c2)CO3)c(=O)c2ccccc21 [Compound 550, 3-((S)-3-((R)-8-(1-ethyl-4-oxo-1,4-dihydroquinolin-3-ylsulfonyl)-1-oxa-8-azaspiro[4.5]decan-3-ylamino)-2-hydroxypropoxy)benzenesulfonamide]"
